Earlier results on four compounds are cited in patent publication US10722545B2, “Compound and method for treatment of movement disorders” (priority 2018, dated 2020).

One data set relates to mice. To be noted: oral administration.
In data set [1] the test system is rat cortical neuron cultures. As to conditions: for glutamate toxicity: isolated or synthetic cannabinoid; for NMDA, AMPA and kainate receptor mediated neurotoxicity: rat cortical neuron cultures, not affected by CB receptor antagonist.
For data set [2] the following is noted: cyclic voltammetry and fenton reaction-based system.
In a further data set the test system is neurons. As to conditions: neuronal cultures.
In data set [3] the test system is mutant hamster model of dystonia.

As for `CCCCCc1cc(O)c2c(c1)OC(C)(C)[C@@H]1CCC(C)=C[C@@H]21` (relative stereo) [THC, (-)-Δ9-trans-tetrahydrocannabinol], in the data set on mice, the “inhibition of phenyl-p-benzoquinone-induced writhing” value is “least effective”. In addition, in data set [1], the glutamate toxicity result is given as “prevented to some extent”; the “NMDA, AMPA and kainate receptor mediated neurotoxicity” value is on record as “reduced”. The antioxidant activity entry in data set [2] is “potent antioxidants”.

On to `C=C(C)[C@@H]1CCC(C)=C[C@H]1c1c(O)cc(CCCCC)cc1O` [CBD, cannabidiol], for which the “inhibition of phenyl-p-benzoquinone-induced writhing” value with mice is “most effective”. The “protective capacity against glutamate toxicity, head to head with other antioxidants” value in data set [1] (compared with alpha-tocopherol and ascorbate) was “superior to both alpha-tocopherol and ascorbate”. Further, in data set [1], the glutamate toxicity result is reported as “prevented to some extent”; the “NMDA, AMPA and kainate receptor mediated neurotoxicity” value is recorded as “reduced”. Further, the “hydroperoxide toxicity in neurons” value in the data set with neurons is recorded as “reduce hydroperoxide toxicity”. In addition, the antioxidant activity entry in data set [2] is recorded as “potent antioxidants”.

`CCCCCc1cc(O)c2c(c1)OC(C)(C)c1ccc(C)cc1-2` [CBN, cannabinol]: the “inhibition of phenyl-p-benzoquinone-induced writhing” value in the data set with mice is listed as “least effective”.

Consider `Cc1c(C(=O)c2cccc3ccccc23)c2cccc3c2n1[C@H](CN1CCOCC1)CO3` [WIN55,212-2], for which the antidystonic effects entry in data set [3] is “produces antidystonic effects”.
